In patent US12545900B2, “CGAS/DNCV-like nucleotidyltransferases and uses thereof” (Dana-Farber Cancer Institute, Inc., priority 2018, dated 2026):
“Also recorded” adds a separate entry of the source.

Assays:
[1] = molecular target: T1, Mus musculus STING (Mus musculus, UniProt Q3TBT3); test: Gel shift assay, radiolabeled nucleotide binding to STING (native PAGE); conditions: radiolabeled nucleotide, 0, 4, 20, 100 μM protein
T1 construct: 6xHis-SUMO2 (N, cleaved yes); made in house; host or cells: E. coli BL21 CodonPlus (DE3)-RIL
T1 sequence (Q3TBT3 138-378 limits assumed): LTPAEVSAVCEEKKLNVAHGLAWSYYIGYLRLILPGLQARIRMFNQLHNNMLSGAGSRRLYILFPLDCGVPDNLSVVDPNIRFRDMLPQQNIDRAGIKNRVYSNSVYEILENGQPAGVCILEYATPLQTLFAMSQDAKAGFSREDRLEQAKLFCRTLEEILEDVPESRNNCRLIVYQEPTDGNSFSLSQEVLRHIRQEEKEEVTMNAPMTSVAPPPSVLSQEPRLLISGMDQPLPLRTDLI
Description: (§1) Briefly, recombinant Mus musculus STING or RECON, at 4, 20, or 100 μM was incubated with radiolabeled nucleotide (≤1 μM final concentration) in gel shift buffer for final conditions of 50 mM Tris pH 7.5, 60 mM KCl, 5 mM Mg (OAc) 2, and 1 mM DTT. Experiments were prepared by combining 1 μL of [α-^32P] labeled nucleotide, 2 uL 5x gel shift buffer, 5 μL of nuclease free water, and started by addition of 2 μL of recombinant protein in storage buffer.
(§2) After 30 min of equilibration, bound and free nucleotide were separated by 6% native PAGE in 0.5x TBE buffer. Gels were dried, and exposed to phosphorscreen prior to detection by Typhoon Trio Variable Mode Imager system (GE Healthcare). Gel shifts were quantified with ImageQuant® 5.2 and the % bound nucleotide was calculated as a proportion of total bound and free nucleotide for each lane, after subtraction of background signal. Gel shift data is representative of ≥2 independent experiments.

[2] = molecular target: T2, RECON (Mus musculus, UniProt Q8VC28); test: Gel shift assay, radiolabeled nucleotide binding to RECON (native PAGE); conditions: radiolabeled nucleotide, 0, 4, 20, 100 μM protein
T2 construct: 6xHis-SUMO2 (N, cleaved yes); made in house; host or cells: E. coli BL21 CodonPlus (DE3)-RIL
T2 sequence (Q8VC28 1-323): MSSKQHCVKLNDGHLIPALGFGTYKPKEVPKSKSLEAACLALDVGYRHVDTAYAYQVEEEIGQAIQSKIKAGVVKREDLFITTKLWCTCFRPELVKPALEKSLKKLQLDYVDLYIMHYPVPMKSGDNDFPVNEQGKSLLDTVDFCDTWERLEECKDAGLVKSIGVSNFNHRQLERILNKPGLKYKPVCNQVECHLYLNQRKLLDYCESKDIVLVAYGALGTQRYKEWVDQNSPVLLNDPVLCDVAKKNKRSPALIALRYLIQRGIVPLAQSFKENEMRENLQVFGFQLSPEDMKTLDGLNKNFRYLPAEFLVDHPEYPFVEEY
Description: as §1, §2

[3] = molecular target: T2, RECON; test: RECON enzyme assay (oxidation of NADPH cosubstrate); assay type: biochemical; conditions: nucleotide 50-0.05 μM
Description: Activity assays were performed as previously described (McFarland et al. (2017) Immunity 46:433-445). Briefly, a 2-fold dilution series of nucleotide from 50-0.05 μM was incubated in 1×PBS with 200 μM NADPH (cosubstrate) and 25 μM 9,10-Phenanthrenequinone (substrate). The reactions were started with the addition of RECON to a final concentration of 0.5 μM and absorbance at 340 nm was monitored at 20 s intervals for 20 min. Slope of each reaction in the linear range (20-250 s) was used to calculate activity (Linear regression/straight Line analysis, Prism 7.0c). Values were normalized to reactions with zero nucleotide added, which defined 100% activity.

[4] = molecular target: T3, CapE (Escherichia coli, UniProt Q6XGD4); test: Phospholipase assay (EnzChek Phospholipase A1), CapE; assay type: biochemical, E. coli; conditions: 0.1, 1, and 10-fold molar ratios of nucleotide to phospholipase
T3 construct: made in house; host or cells: E. coli BL21 CodonPlus (DE3)-RIL
Description: Patatin-like lipases were assayed as previously described (Gaspar & Machner (2014) Proc. Natl. Acad. Sci. U.S.A. 111:4560-4565). Briefly, CapV and CapE were produced recombinantly and catalytic activity was measured using the EnzChek® Phospholipase A1 Assay Kit (Invitrogen) according to the manufacturer's instructions. […] Assays were monitored fluorometrically Ex=460 nm/Em=515 nm, for 60 min at ˜90 s intervals at room temperature using a Biotek Synergy plate reader. Slope of each reaction in the linear range was used to calculate activity (Linear regression/straight line analysis, Prism 7.0c). A PLA1 standard curve from 20-0.02 U was used to interpolate phospholipase activity. Emission was monitored at a gain of 100 and/or 50 in order to extend the linear range of the assay.

[5] = tested on: interferon-β reporter in HEK293T cells expressing Mus musculus STING; test: Cellular assay for interferon-β induction (in-cell STING reporter assay); conditions: HEK293T cells transfected with plasmid overexpressing the synthesizing enzyme

T3 sequence (Q6XGD4 whole entry): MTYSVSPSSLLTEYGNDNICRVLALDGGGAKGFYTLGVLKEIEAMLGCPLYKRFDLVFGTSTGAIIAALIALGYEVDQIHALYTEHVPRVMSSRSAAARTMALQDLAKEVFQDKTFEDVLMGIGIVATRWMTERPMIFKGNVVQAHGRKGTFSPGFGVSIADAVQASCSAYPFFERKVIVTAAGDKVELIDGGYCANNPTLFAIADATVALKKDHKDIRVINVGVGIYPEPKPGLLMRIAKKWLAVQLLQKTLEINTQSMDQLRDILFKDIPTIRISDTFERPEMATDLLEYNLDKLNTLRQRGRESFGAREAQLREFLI

| Compound | recognition/binding of nucleotide by STING [1] | recognition/binding of nucleotide by RECON [2] | inhibition of RECON enzymatic activity [3] | activation of CapE phospholipase activity [4] | activation of STING-dependent type I interferon (IFN-β reporter) [5] |
| --- | --- | --- | --- | --- | --- |
| Nc1nc2c(ncn2[C@@H]2O[C@@H]3COP(=O)(O)O[C@H]4[C@@H](O)[C@H](n5cnc6c(N)ncnc65)O[C@@H]4COP(=O)(O)O[C@H]4[C@@H](O)[C@H](n5cnc6c(N)ncnc65)O[C@@H]4COP(=O)(O)O[C@H]3[C@H]2O)c(=O)[nH]1 [cAAG, 3′3′3′ tricyclic adenosine monophosphate-adenosine monophosphate-guanosine monophosphate] | escaped STING recognition | detected by RECON | inhibition of RECON enzymatic activity | – | – |
| Nc1ncnc2c1ncn2C1OC2COP(=O)(O)OC3C(COP(=O)(O)OC2C1O)OC(n1ccc(=O)[nH]c1=O)C3O (stereo not shown) [cUMP-AMP, 3′3′ cyclic uridine monophosphate-adenosine monophosphate] | – | bound to cUMP-AMP; also recorded: detected by RECON | inhibited RECON function, albeit with a reduced potency compared to the previously reported inhibition by c-di-AMP and 3′3′ cGAMP | CapE as a direct cUMP-AMP receptor | failed to activate STING-dependent type I interferon in cells |
